# Experimental data published in PMC5786306, “An AKAP-Lbc-RhoA interaction inhibitor promotes the translocation of aquaporin-2 to the plasma membrane of renal collecting duct principal cells” (PLoS ONE, 2018).
# Columns and labels:
# [1] = test system: IMCD, MCD4, HEK293, MCF7 and H9C2 cells; assay: MTS cytotoxicity assay; assay type: cell-based, rat, mouse, human; conditions: 3–100 μM, 24–72 h
# Description: The potential cytotoxicity of Scaff10-8 on primary IMCD and several permanent cell lines (MCF7, H9C2, HEK293, MCD4) was assessed using the tetrazolium compound-based CellTiter 96 AQueous One Solution Cell Proliferation (3-(4,5-dimethylthiazol-2-yl)-5-(3-carboxymethoxyphenyl)-2-(4-sulfophenyl)-2H-tetrazolium) (MTS) assay according to the instructions of the manufacturer. In brief, the cells were seeded into 96 well plates (5,000 cells per well) and cultured in their appropriate medium Scaff10-8 (100 μM, 30 μm and 3 μm, 0.3% final DMSO concentration) were added, DMSO (0.3%) was included as a control. Staurosporine (1 μM) was included as a positive control. All conditions were tested in quadruplicate. At the indicated time points, the MTS reagent was added. Absorption was determined 4 h after addition of MTS reagent at 450 nm wavelength. The MST reagent absorbance at 450 nm is proportional to the amount of living cells. A blank measurement determined the medium absorption (background). Values were normalized to untreated cells after 24 h for each cell line.
# Fig 6 Scaff10-8 is not cytotoxic. […] (B) Cytotoxicity was assessed after 24–72 h of incubation with Scaff10-8 (3, 30, 100 μM). […] Absorption was determined at 450 nm and was related to medium absorption (blank). […] Statistically significant differences were determined applying one-way ANOVA with posthoc Bonferroni. […]
# [2] = test system: RhoA activity in IMCD cells; assay: Rhotekin pull down of active RhoA in IMCD cells; assay type: cell-based, rat; conditions: 30 μM
# Description: Western blotting for the detection of RhoA and Hsp90 and a Rhotekin pull down for the detection of active, GTP-bound RhoA were adapted from a procedure previously described by us. In brief, IMCD cells were cultured as described, DBcAMP and nystatin were removed on day twelve after seeding by exchange of medium for medium without the compounds. On the following day, Scaff10-8 was added to a final concentration of 30 μM or, as a control, the solvent DMSO (0.3%) for 1 h. Then cells were treated with forskolin (30 μM) for an additional 30 min, and subsequently incubated at 4°C in ice-cold Rhotekin buffer (50 mM Tris, pH 7.2; 1% (w/v) Triton X-100; 0.5% sodium deoxycholate; 500 mM NaCl; 10 mm MgCl2; PhosSTOP EASY (PhosSTOP EASY pack, Roche Diagnostics, Mannheim, DE; #REF04906837001), Complete mini EDTA-free (Complete mini EDTA-free, Roche Diagnostics, Mannheim, DE; #REF0693159001), for 10 min and lysed. Lysates (300–400 μg protein) were incubated with 300 μl of Rhotekin beads as previously described Proteins were eluted from beads with Laemmli buffer and analyzed by Western blotting. […]
# Fig 10 Scaff10-8 inhibits activation of RhoA in primary IMCD cells. […] Signals were semiquantitatively analyzed by densitometry. […] Statistically significant differences were determined using one-way ANOVA with posthoc Bonferroni. […]
structure (smiles),measurement,setting,value
"COc1ccc(-c2coc3cc4oc(=O)c(CCC(=O)O)c(C)c4cc23)cc1 [Scaff10-8, 3-[3-(4-Methoxyphenyl)-5-methyl-7-oxo-furo[3,2-g]chromen-6-yl] propanoic acid]",viability of cells (MTS),[1],did not influence the viability
same,RhoA activity,[2]; 1 h,decreased RhoA activity
same,effect on RhoA inhibition by forskolin,"[2]; 1 h plus forskolin 30 μM, 30 min",did not significantly enhance
